Where a name gives a salt, the structure may show the parent alone.
Experiments:
YAP/TAZ = YAP/TAZ nuclear localization in IPF patient-derived lung fibroblasts treated with dopaminergic agonists; assay type: cell-based, human; details: 10 μM, 2 hours
Procedure: IPF patient-derived lung fibroblasts cells treated 2 hours prior to fixation with diverse dopaminergic agonists (10 μM). N=4 different patient samples. % nuclear localization of YAP/TAZ was determined using automated imaging software. Scale bar represents 100 μm.
(§1) Media was then exchanged for the indicated conditions for each experiment. […] Cells or tissue sections were incubated overnight with mouse monoclonal antibody against αSMA (Sigma-Aldrich F3777), and/or a rabbit monoclonal antibody against YAP/TAZ (Cell Signaling D24E4) diluted 1:200 in PBS with 1% BSA. Cells were then washed and exposed to flourescence-conjugated secondary antibodies (Invitrogen) diluted 1:1000 and DAPI (Thermo Fisher Scientific). Images were taken with a Cytation5 (BioTek) microscope. For scoring αSMA positive cells (FIG. 12), an observer blinded to the treatment conditions counted αSMA-positive cells using a visual threshold for bright fibrous staining; a minimum of 200 cells was counted for each condition. YAP/TAZ localization was quantified (FIGS. 6-10, 24-26, and 29-30) using Gen5 (Biotek) software. Images were taken at 4× magnification of both DAPI and YAP/TAZ staining. […] Quantification of double positive (YAP/TAZ and αSMA) cells from lung tissue sections (FIG. 17-21) was performed similarly; however separate thresholds were established for both YAP/TAZ and αSMA. A minimum of 4000 cells was quantified for each mouse.

αSMA = αSMA intensity (fibroblast activation) in IPF patient-derived lung fibroblasts + TGFβ, dopaminergic agonist library; assay type: cell-based, human; details: 1 μM + TGFβ, 72 hours
Procedure: as §1

NCCc1ccc(O)cc1 [4-Hydroxyphenethylamine•HCl, 4-Hydroxyphenethylamine]
Nuclear localization (% of total cells) (YAP/TAZ; IPF-1 patient fibroblasts): 56.52 % of total cells | Nuclear localization (% of total cells) (YAP/TAZ; IPF-2 patient fibroblasts): 45.69 % of total cells | Nuclear localization (% of total cells) (YAP/TAZ; IPF-3 patient fibroblasts): 76.57 % of total cells | Nuclear localization (% of total cells) (YAP/TAZ; IPF-4 patient fibroblasts): 43.3719 % of total cells

CC(C)C[C@H]1C(=O)N2CCC[C@H]2[C@]2(O)O[C@](NC(=O)[C@@H]3C=C4c5cccc6[nH]c(Br)c(c56)C[C@H]4N(C)C3)(C(C)C)C(=O)N12 [Bromocriptine mesylate, Bromocriptine]
Nuclear localization (% of total cells) (YAP/TAZ; IPF-1 patient fibroblasts): 73.03 % of total cells | Nuclear localization (% of total cells) (YAP/TAZ; IPF-2 patient fibroblasts): 52.81 % of total cells | Nuclear localization (% of total cells) (YAP/TAZ; IPF-3 patient fibroblasts): 64.09 % of total cells | Nuclear localization (% of total cells) (YAP/TAZ; IPF-4 patient fibroblasts): 64.6 % of total cells

Br.C=CCN1CCc2c(cc(O)c(O)c2Cl)C(c2ccccc2)C1 (racemic) [(±)-SKF-82958•HBr, (±)-SKF-82958]
Nuclear localization (% of total cells) (YAP/TAZ; IPF-1 patient fibroblasts): 29.15 % of total cells | Nuclear localization (% of total cells) (YAP/TAZ; IPF-2 patient fibroblasts): 38 % of total cells | Nuclear localization (% of total cells) (YAP/TAZ; IPF-3 patient fibroblasts): 38 % of total cells | Nuclear localization (% of total cells) (YAP/TAZ; IPF-4 patient fibroblasts): 12.29 % of total cells | αSMA intensity (% of DMSO control) (αSMA; IPF-1 patient fibroblasts): 11.78 % of DMSO control | αSMA intensity (% of DMSO control) (αSMA; IPF-2 patient fibroblasts): 4.966 % of DMSO control | αSMA intensity (% of DMSO control) (αSMA; IPF-3 patient fibroblasts): 2.428 % of DMSO control | αSMA intensity (% of DMSO control) (αSMA; IPF-4 patient fibroblasts): 9.326 % of DMSO control

Oc1cc2c(cc1O)[C@@H](c1ccccc1)CNCC2 [SKF 38393•HBr, SKF 38393]
Nuclear localization (% of total cells) (YAP/TAZ; IPF-1 patient fibroblasts): 69.5873 % of total cells | Nuclear localization (% of total cells) (YAP/TAZ; IPF-2 patient fibroblasts): 47.375 % of total cells | Nuclear localization (% of total cells) (YAP/TAZ; IPF-3 patient fibroblasts): 61.33 % of total cells | Nuclear localization (% of total cells) (YAP/TAZ; IPF-4 patient fibroblasts): 35.79 % of total cells

CCCN1C[C@H](CSC)C[C@@H]2c3cccc4[nH]cc(c34)C[C@H]21 [Pergolide mesylate, Pergolide]
Nuclear localization (% of total cells) (YAP/TAZ; IPF-1 patient fibroblasts): 82.49 % of total cells | Nuclear localization (% of total cells) (YAP/TAZ; IPF-2 patient fibroblasts): 69.37 % of total cells | Nuclear localization (% of total cells) (YAP/TAZ; IPF-3 patient fibroblasts): 70.67 % of total cells | Nuclear localization (% of total cells) (YAP/TAZ; IPF-4 patient fibroblasts): 65.58 % of total cells

CN1C[C@@H](NS(=O)(=O)N(C)C)C[C@@H]2c3cccc4c3c(cn4C)C[C@H]21 [Mesulergine•HCl, Mesulergine]
Nuclear localization (% of total cells) (YAP/TAZ; IPF-1 patient fibroblasts): 37.81 % of total cells | Nuclear localization (% of total cells) (YAP/TAZ; IPF-2 patient fibroblasts): 45.14 % of total cells | Nuclear localization (% of total cells) (YAP/TAZ; IPF-3 patient fibroblasts): 78.625 % of total cells | Nuclear localization (% of total cells) (YAP/TAZ; IPF-4 patient fibroblasts): 45.14 % of total cells

CCCN[C@H]1CCc2nc(N)sc2C1 [Pramipexole Dihydrochloride Monohydrate, Pramipexole]
Nuclear localization (% of total cells) (YAP/TAZ; IPF-1 patient fibroblasts): 64.92 % of total cells | Nuclear localization (% of total cells) (YAP/TAZ; IPF-2 patient fibroblasts): 47.65 % of total cells | Nuclear localization (% of total cells) (YAP/TAZ; IPF-3 patient fibroblasts): 65.5 % of total cells | Nuclear localization (% of total cells) (YAP/TAZ; IPF-4 patient fibroblasts): 58.97 % of total cells

c1cnc(N2CCN(Cc3ccc4c(c3)OCO4)CC2)nc1 [Piribedil•2HCl, Piribedil]
Nuclear localization (% of total cells) (YAP/TAZ; IPF-1 patient fibroblasts): 61.58 % of total cells | Nuclear localization (% of total cells) (YAP/TAZ; IPF-2 patient fibroblasts): 85.76 % of total cells | Nuclear localization (% of total cells) (YAP/TAZ; IPF-3 patient fibroblasts): 59.05 % of total cells | Nuclear localization (% of total cells) (YAP/TAZ; IPF-4 patient fibroblasts): 59.64 % of total cells

— patent US12264163B2, “Compounds and methods for treating fibrotic pathologies” (Mayo Foundation for Medical Education and Research, priority 2019, dated 2025)
